{
  "source": "ChEMBL document CHEMBL1201862",
  "about": "“PubChem BioAssay data set” (2004)",
  "test_in_all_cases": "NCI-60 cell line screen, 48 h",
  "key": {"IGROV-1": {"system": "IGROV-1"}, "HL-60": {"system": "HL-60"}, "SNB-19": {"system": "SNB-19"}, "M14": {"system": "M14"}, "RXF 393": {"system": "RXF 393"}, "SK-MEL-28": {"system": "SK-MEL-28"}, "NCI-H522": {"system": "NCI-H522"}, "UO-31": {"system": "UO-31"}, "SR": {"system": "SR"}, "DLD-1": {"system": "DLD-1"}, "EKVX": {"system": "EKVX"}, "SK-MEL-2": {"system": "SK-MEL-2"}, "KM12": {"system": "KM12"}, "MOLT-4": {"system": "MOLT-4"}, "NCI-H23": {"system": "NCI-H23"}, "SW-620": {"system": "SW-620"}, "A498": {"system": "A498"}, "LXFL 529": {"system": "LXFL 529"}, "HCT-116": {"system": "HCT-116"}, "A549": {"system": "A549"}, "OVCAR-4": {"system": "OVCAR-4"}, "SN12C": {"system": "SN12C"}, "LOX IMVI": {"system": "LOX IMVI"}, "CCRF-CEM": {"system": "CCRF-CEM"}, "COLO 205": {"system": "COLO 205"}, "ACHN": {"system": "ACHN"}, "OVCAR-5": {"system": "OVCAR-5"}, "U-251": {"system": "U-251"}, "SNB-78": {"system": "SNB-78"}, "TK-10": {"system": "TK-10"}, "HCC 2998": {"system": "HCC 2998"}, "NCI-H226": {"system": "NCI-H226"}, "HOP-62": {"system": "HOP-62"}, "KM-20L2": {"system": "KM-20L2"}, "OVCAR-3": {"system": "OVCAR-3"}, "RPMI-8226": {"system": "RPMI-8226"}, "786-0": {"system": "786-0"}, "UACC-257": {"system": "UACC-257"}, "SNB-75": {"system": "SNB-75"}, "OVCAR-8": {"system": "OVCAR-8"}, "HCT-15": {"system": "HCT-15"}, "SF-268": {"system": "SF-268"}, "HT-29": {"system": "HT-29"}, "SF-295": {"system": "SF-295"}, "CAKI-1": {"system": "CAKI-1"}, "SF-539": {"system": "SF-539"}, "K562": {"system": "K562"}, "NCI-H460": {"system": "NCI-H460"}},
  "note": "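The compound was tested at five concentrations on cells cultured in 96-well plates, with a 48-hour exposure period. The concentration for 50% growth inhibition is given as GI50.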 Active and inactive are the calls of the source. No stated cut-off is given here; in the data, active = GI50 up to about 1.1 µM and inactive = higher.",
  "data": [
    {"smiles": "O=[N+]([O-])C=C1c2ccccc2-c2ccccc21", "values": [
      {"measurement": "GI50", "setting": "IGROV-1", "result": "> 10 µM (inactive)"},
      {"measurement": "GI50", "setting": "HL-60", "result": "4.01 µM (inactive)"},
      {"measurement": "GI50", "setting": "SNB-19", "result": "23 µM (inactive)"},
      {"measurement": "GI50", "setting": "M14", "result": "12.7 µM (inactive)"},
      {"measurement": "GI50", "setting": "RXF 393", "result": "17.5 µM (inactive)"},
      {"measurement": "GI50", "setting": "SK-MEL-28", "result": "17.2 µM (inactive)"},
      {"measurement": "GI50", "setting": "NCI-H522", "result": "3.76 µM (inactive)"},
      {"measurement": "GI50", "setting": "UO-31", "result": "15.2 µM (inactive)"},
      {"measurement": "GI50", "setting": "SR", "result": "4.65 µM (inactive)"},
      {"measurement": "GI50", "setting": "DLD-1", "result": "2.84 µM (inactive)"},
      {"measurement": "GI50", "setting": "EKVX", "result": "20.4 µM (inactive)"},
      {"measurement": "GI50", "setting": "SK-MEL-2", "result": "21.6 µM (inactive)"},
      {"measurement": "GI50", "setting": "KM12", "result": "17.3 µM (inactive)"},
      {"measurement": "GI50", "setting": "MOLT-4", "result": "3.7 µM (inactive)"},
      {"measurement": "GI50", "setting": "NCI-H23", "result": "16.8 µM (inactive)"},
      {"measurement": "GI50", "setting": "SW-620", "result": "16.4 µM (inactive)"},
      {"measurement": "GI50", "setting": "A498", "result": "19.6 µM (inactive)"},
      {"measurement": "GI50", "setting": "LXFL 529", "result": "14.9 µM (inactive)"},
      {"measurement": "GI50", "setting": "HCT-116", "result": "4.75 µM (inactive)"},
      {"measurement": "GI50", "setting": "A549", "result": "19.9 µM (inactive)"},
      {"measurement": "GI50", "setting": "OVCAR-4", "result": "14.2 µM (inactive)"},
      {"measurement": "GI50", "setting": "SN12C", "result": "18.9 µM (inactive)"},
      {"measurement": "GI50", "setting": "LOX IMVI", "result": "16.6 µM (inactive)"},
      {"measurement": "GI50", "setting": "CCRF-CEM", "result": "4.91 µM (inactive)"},
      {"measurement": "GI50", "setting": "COLO 205", "result": "1.86 µM (inactive)"},
      {"measurement": "GI50", "setting": "ACHN", "result": "16.9 µM (inactive)"},
      {"measurement": "GI50", "setting": "OVCAR-5", "result": "17.4 µM (inactive)"},
      {"measurement": "GI50", "setting": "U-251", "result": "> 10 µM (inactive)"},
      {"measurement": "GI50", "setting": "SNB-78", "result": "17.4 µM (inactive)"},
      {"measurement": "GI50", "setting": "TK-10", "result": "18.3 µM (inactive)"},
      {"measurement": "GI50", "setting": "HCC 2998", "result": "16.8 µM (inactive)"},
      {"measurement": "GI50", "setting": "NCI-H226", "result": "> 10 µM (inactive)"},
      {"measurement": "GI50", "setting": "HOP-62", "result": "17.5 µM (inactive)"},
      {"measurement": "GI50", "setting": "KM-20L2", "result": "19.1 µM (inactive)"},
      {"measurement": "GI50", "setting": "OVCAR-3", "result": "15.1 µM (inactive)"},
      {"measurement": "GI50", "setting": "RPMI-8226", "result": "2.18 µM (inactive)"},
      {"measurement": "GI50", "setting": "786-0", "result": "16.7 µM (inactive)"},
      {"measurement": "GI50", "setting": "UACC-257", "result": "19.1 µM (inactive)"},
      {"measurement": "GI50", "setting": "SNB-75", "result": "25.4 µM (inactive)"},
      {"measurement": "GI50", "setting": "OVCAR-8", "result": "16.4 µM (inactive)"},
      {"measurement": "GI50", "setting": "HCT-15", "result": 19.1, "unit": "µM"},
      {"measurement": "GI50", "setting": "SF-268", "result": "19.9 µM (inactive)"},
      {"measurement": "GI50", "setting": "HT-29", "result": "20 µM (inactive)"},
      {"measurement": "GI50", "setting": "SF-295", "result": "19 µM (inactive)"},
      {"measurement": "GI50", "setting": "CAKI-1", "result": "11.4 µM (inactive)"},
      {"measurement": "GI50", "setting": "SF-539", "result": "17.5 µM (inactive)"},
      {"measurement": "GI50", "setting": "K562", "result": "2.52 µM (inactive)"},
      {"measurement": "GI50", "setting": "NCI-H460", "result": "20.1 µM (inactive)"}
    ]}
  ]
}
